Measurements as given in publication PMC8302504, “Efficacy of Fenfluramine and Norfenfluramine Enantiomers and Various Antiepileptic Drugs in a Zebrafish Model of Dravet Syndrome” (Neurochemical Research, 2021).
Entries after “also recorded” stand apart in the source; their conditions may differ.

Experiments:
[1] = system: zebrafish scn1Lab−/− mutant larvae; test: Noninvasive local field potential (LFP) recordings from the optic tectum; assay type: in vivo, Danio rerio; conditions: 22 h
Experimental: (§1) WT and homozygous zebrafish larvae (scn1Lab^−/− mutants) (6 dpf) were treated as described above. After incubation, larvae were immobilized in 2% low-melting-point agarose (Invitrogen) at room temperature (RT) and the epileptiform activities were measured by noninvasive local field potential (LFP) recording from the skin above the optic tectum (midbrain). The single glass electrode filled with artificial cerebrospinal fluid (ACSF) (124 mM NaCl, 2 mM KCl, 2 mM MgSO4, 2 mM CaCl2, 1.25 mM KH2PO4, 26 mM NaHCO3, and 10 mM glucose) was positioned on the skin above the optic tectum. Each recording lasted for 10 min. Epileptiform activity was quantified by using Clampfit 10.2 software (Molecular Devices Corporation, USA60), as reported previously by our group.

WT zebrafish larvae = test: Toxicity evaluation: maximum tolerated concentration (MTC); assay type: in vivo, Danio rerio; conditions: WT larvae 6 dpf, 22 h incubation
Experimental: To evaluate the maximum tolerated concentration (MTC) of the individual compounds, a dozen of WT zebrafish larvae (6 dpf) were individually incubated in single wells of a 96-well plate, and treated with two-fold serial dilutions of the compounds. After 22 h incubation under standard conditions (28 °C, 14/10 light/dark cycle), larvae were individually examined for their touch response, posture, edema, signs of necrosis, morphology, heartbeat rate, and swim bladder condition under the microscope.

[2] = system: zebrafish scn1Lab−/− mutant larvae; test: Locomotor activity measurement (behavioral assay) in the zebrafish DS model; assay type: in vivo, Danio rerio; conditions: 22 h; for effect on epileptiform (hyper-)locomotor activity: single treatment at MTC, Fig. 2A
Experimental: (§2) WT and homozygous zebrafish larvae (scn1Lab^−/− mutants) (6 dpf) were individually positioned in single wells of a 96-well plate, and incubated in 100 μL VHC or VHC supplemented with compound or combined compounds for 22 h at 28 °C on a 14/10 h light/dark cycle. Then, the plates were placed immediately in an enclosed tracking device (ZebraBox Viewpoint, France), followed by a 30 min chamber habituation and 10 min recording. Locomotor activity over the total tracking period of 10 min was quantified by ZebraLab software (Software Viewpoint, France) using the lardist parameter (total distance in large movements) and 150 bkg (background) as a threshold, as reported previously by our group. For “small/large movement” and “inact/small movement”, a threshold was used of 6.4 and 3.3, respectively. Data were pooled from three or four independent experiments, with at least five larvae for each treatment and 20–30 larvae for each experimental condition, and expressed as “cm” per 100 s.

[3] = system: zebrafish scn1Lab−/− mutant model of DS; test: Overall antiepileptic activity in the zebrafish scn1Lab−/− mutant model (locomotor and LFP read-outs together); assay type: in vivo, Danio rerio; conditions: 22 h incubation
Experimental: as §2, §1

5-HT2B = system: 5-HT2B; design: method as in earlier work; conditions: 34 (Rothman et al.); cited from earlier work
[4] = system: norepinephrine (NE) release; design: method as in earlier work; conditions: 34 (Rothman et al.); cited from earlier work
[5] = target: norepinephrine (NE) uptake; design: method as in earlier work; conditions: 34 (Rothman et al.); read-out: Ki values for uptake inhibition, NE; cited from earlier work
dopamine (DA) release = system: dopamine (DA) release; design: method as in earlier work; conditions: 34 (Rothman et al.); cited from earlier work
5-HT2C = system: 5-HT2C; design: method as in earlier work; conditions: 34 (Rothman et al.); cited from earlier work
dopamine (DA) uptake = target: dopamine (DA) uptake; design: method as in earlier work; conditions: 34 (Rothman et al.); read-out: Ki values for uptake inhibition, DA; cited from earlier work
5-HT2A = system: 5-HT2A; design: method as in earlier work; conditions: 34 (Rothman et al.); cited from earlier work
[6] = Compound concentration (uptake) in larval zebrafish heads by LC-MS; assay type: in vivo, Danio rerio; conditions: immersion at MTC for 30 min, 4 h and 22 h, Fig. 4
Experimental: WT and homozygous zebrafish larvae (scn1Lab^−/− mutants) (6 dpf) were treated as described above. After incubation with compounds, larvae were washed and euthanized by exposure to cold Milli-Q water. Then, the heads of larvae were carefully separated under the microscope, and five heads were transferred collectively into one 1.5 mL Eppendorf tube with acid-washed glass beads (diameter: […], Sigma Aldrich) and 275 µL extraction medium (HPLC grade methanol, Sigma Aldrich). Next, the samples were homogenized by 10 min of ultrasonication (Diagenode Bioruptor Plus, Belgium) at 4 °C. The overall ultrasonication process encompassed 10 cycles of 30 s with pauses of 30 s in-between with high energy input. […]
Quantification was performed through the use of a calibration curve created for each compound separately in blank matrix, which was derived from a pooled set of blank fish heads (n = 40). […] Ranges consisted of at least 5 concentrations, each of which was analyzed in replicate (n = 5). […]
The mean head weight (± S.D.) of a 6 dpf and 7 dpf zebrafish larva was 192 ± 10 µg and 196 ± 13 µg, respectively, as measured by weighing three batches of 50 fresh heads after removing excess water with filter paper. The final uptake was calculated according to the method reported by Copmans et al., and expressed as amount/head weight (µg/g).

serotonin uptake = target: serotonin uptake; design: method as in earlier work; conditions: 34 (Rothman et al.); read-out: Ki values for uptake inhibition, 5-HT; cited from earlier work
[7] = system: 5-HT transporter proteins; design: method as in earlier work; conditions: 34 (Rothman et al.); read-out: EC50 values for release, 5-HT; cited from earlier work
[8] = VPA single treatment at 250 µM, Fig. 3

C=C(C)[C@@H]1CCC(C)=C[C@H]1c1c(O)cc(CCCCC)cc1O [CBD, cannabidiol]
effect on epileptiform brain discharges ([1]; single treatment at MTC): failed to rescue; also recorded: not active | maximum tolerated concentration (MTC) (WT zebrafish larvae): 6.25 µM | effect on epileptiform (hyper-)locomotor activity [2]: failed to rescue; also recorded: not active

CCCC(CCC)C(=O)O [VPA, Valproate]
effect on epileptiform brain discharges [1, 8]: limited and statistically non-significant effect; also recorded: not active | effect on cumulative duration of epileptiform events ([1]; single treatment at MTC, Fig. 2B): complete rescue | effect on frequency of epileptiform events ([1]; single treatment at MTC, Fig. 2C): complete rescue | maximum tolerated concentration (MTC) (WT zebrafish larvae): 1000 µM | effect on locomotor activity [2, 8]: limited and statistically non-significant effect; also recorded: not active | effect on epileptiform (hyper-)locomotor activity [2]: complete rescue

CC[C@@H](C(N)=O)N1CCCC1=O [LEV, levetiracetam]
effect on epileptiform brain discharges ([1]; single treatment at MTC): failed to rescue | maximum tolerated concentration (MTC) (WT zebrafish larvae): 10000 µM | antiepileptic activity in the model (overall) [3]: failed to suppress | effect on epileptiform (hyper-)locomotor activity [2]: failed to rescue

CCN[C@@H](C)Cc1cccc(C(F)(F)F)c1 [(+)-FFA]
Kact values for 5-HT2 receptor subtypes, 5-HT2B (5-HT2B): 379 ± 70 nM | EC50 [4]: 302 ± 20 nM | Ki [5]: 1290 ± 52 nM | EC50 (dopamine (DA) release): > 10000 nM | Kact values for 5-HT2 receptor subtypes, 5-HT2C (5-HT2C): 362 ± 64 nM | antiepileptic activity in the model (overall) [3]: more consistent and concentration-dependent; also recorded: significant antiepileptic effects | Ki (dopamine (DA) uptake): > 20000 nM

O=C1NC(=O)C(c2ccccc2)(c2ccccc2)N1 [PHT, Phenytoin]
effect on epileptiform brain discharges ([1]; single treatment at MTC): no inhibitory effects | maximum tolerated concentration (MTC) (WT zebrafish larvae): 100 µM | effect on epileptiform (hyper-)locomotor activity [2]: no inhibitory effects

C[C@@H](N)Cc1cccc(C(F)(F)F)c1 [(−)-norFFA]
Kact values for 5-HT2 receptor subtypes, 5-HT2A (5-HT2A): 1565 ± 190 nM | Kact values for 5-HT2 receptor subtypes, 5-HT2B (5-HT2B): 357 ± 105 nM | effect on frequency and cumulative duration of the epileptiform events ([1]; at least at MTC, Fig. 7): all compounds except for (−)-norFFA significantly reduced | EC50 [4]: 474 ± 40 nM | Ki [5]: 2050 ± 297 nM | EC50 (dopamine (DA) release): > 10000 nM | Kact values for 5-HT2 receptor subtypes, 5-HT2C (5-HT2C): 18 ± 3.5 nM | total uptake in larval heads (amount of compound/head weight) [6]: somewhat similar uptake | antiepileptic activity in the model (overall) [3]: less conclusive | Ki (serotonin uptake): 1180 ± 89 nM | Ki (dopamine (DA) uptake): 19200 nM | EC50 [7]: 287 ± 14 nM

CC(C)(C)C(O)/C=C/c1ccc2c(c1)OCO2 (centres unmarked) [STP, stiripentol]
effect on epileptiform brain discharges ([1]; single treatment at MTC): failed to rescue; also recorded: not active | maximum tolerated concentration (MTC) (WT zebrafish larvae): 50 µM | effect on epileptiform (hyper-)locomotor activity [2]: failed to rescue; also recorded: not active
